Test [1] addresses T1, LTD4 receptors (Cavia porcellus, UniProt Q2NNR5).
T1 construct: A section of terminal ileum was removed, the lumen cleaned, and the tissue divided into 2.5 cm segments; from tissue; host or cells: ileum and trachea of guinea pig (ileum: male Hartley)
T1 sequence (Q2NNR5 1-340): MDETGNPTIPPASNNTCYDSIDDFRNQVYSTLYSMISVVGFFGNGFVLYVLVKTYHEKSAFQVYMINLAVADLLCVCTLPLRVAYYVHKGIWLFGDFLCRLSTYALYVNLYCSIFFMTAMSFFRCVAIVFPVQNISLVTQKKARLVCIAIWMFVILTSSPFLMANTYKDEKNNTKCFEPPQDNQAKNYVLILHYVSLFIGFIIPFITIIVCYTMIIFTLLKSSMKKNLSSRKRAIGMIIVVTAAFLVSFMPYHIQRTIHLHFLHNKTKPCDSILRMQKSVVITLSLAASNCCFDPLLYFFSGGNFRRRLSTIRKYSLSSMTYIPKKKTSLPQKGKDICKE
The test can be described thus: Antagonism of LTD4 (guinea pig ileum and trachea, pA2). As to conditions: *Estimated; negative log of KB; antagonist 30 minute incubation. The protocol:
Male, Hartley guinea pigs weighing 200-450 grams were killed by decapitation. A section of terminal ileum was removed, the lumen cleaned, and the tissue divided into 2.5 cm segments. The ilea were mounted in 10 ml tissue baths containing Krebs-bicarbonate solution of the following composition in mmoles/liter: KCl, 4.6; CaCl2 ·2H2 O, 1.2; KH2 PO4, 1.2; MgSO4 ·7H2O, 1.2; NaCl, 118.2; NaHCO3, 24.8; and dextrose, 10.0. The bath fluid was maintained at 37° C. and aerated with 95 percent oxygen and 5 percent CO2 In addition, the buffer contained 1×10^-6 M atropine to reduce ileal spontaneous activity. Isometric measurements were made with a Grass FT03C. force-displacement transducer and recorded on a Grass polygraph as change in grams of force. A passive force of 0.5 g was applied to the tissues. After an appropriate equilibration period, single submaximal control responses to pure LTD4 were obtained. Following a five minute exposure of the ileum to an experimental drug, the control concentration of LTD4 was added to the tissue bath. The response of the ileum to LTD4 in the presence of the drug was compared to the response in the absence of the drug.
A more detailed analysis of LTD4 antagonism was then made. In these experiments, cumulative concentration-response curves were obtained to LTD4 in guinea pig ileum and trachea. This was followed by a 30 minute incubation with various concentrations of the experimental drug. The concentration response curve to LTD4 was then repeated in the presence of the antagonist. Only one concentration of antagonist was used on a single tissue. KB values were calculated by the method of Furchgott [Ann. N.Y. Acad. Sci., 139, 553 (1967)] using the following equation. [formula]
Dose ratio refers to the concentration of agonist required to elicit 50 percent of the maximal response ED50) in the presence of the antagonist divided by the ED50 in the absence of the antagonist.

For test [2], the target named is T2, specific receptor on the membrane of human neutrophils (leukotriene B4) (Homo sapiens, UniProt Q15722).
T2 construct: Freshly-prepared buffy coat layers from two individuals were obtained from a local blood donor center; endogenous in cells; host or cells: intact human peripheral blood neutrophils from buffy coats of two donors
T2 sequence (Q15722 whole entry): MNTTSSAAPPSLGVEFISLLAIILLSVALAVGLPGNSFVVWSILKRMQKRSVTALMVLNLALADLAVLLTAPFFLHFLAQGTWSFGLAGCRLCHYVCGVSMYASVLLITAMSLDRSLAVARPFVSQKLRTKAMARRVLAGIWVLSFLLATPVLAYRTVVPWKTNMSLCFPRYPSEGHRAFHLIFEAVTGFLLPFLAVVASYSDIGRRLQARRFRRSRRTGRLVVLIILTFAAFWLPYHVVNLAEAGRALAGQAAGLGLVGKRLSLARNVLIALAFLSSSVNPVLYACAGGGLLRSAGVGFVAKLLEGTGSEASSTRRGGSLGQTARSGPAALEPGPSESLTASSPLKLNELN
In words: Inhibition of Binding of ^3 H-LTB4 to Peripheral Human Neutrophils. The note with it: for inhibition at 10 µM / inhibition at 1 µM / inhibition at 0.1 µM: read-out: LTB4 Binding Inhibition; for inhibition at 0.1 µM: drug concentration 10^-7 M. The protocol:
Cells used in the assay were isolated by standard techniques of centrifugation on Ficoll-Hypaque, dextran 70 sedimentation and hypotonic lysis. The following procedure was used. Freshly-prepared buffy coat layers from two individuals were obtained from a local blood donor center. The cells were mixed and diluted to 484 ml with phosphate buffered saline containing heparin (10 units/ml) and heat-inactivated calf serum (5%). This was divided into 20 ml aliquots and the aliquots layered on top of Ficoll-Paque (12 ml). The material was then centrifuged at 500 g for 40 minutes at room temperature. The resulting upper layer of platelets and mononuclear cells was discarded. The lower layer containing erythrocytes and neutrophils was retained. Buffer was added (1 ml per 4 ml of lower layer) and the suspension mixed. For each milliliter of this mixture, 0.33 ml of 6% Macrodex was added. After stirring, the cells were allowed to sediment for 1 hour at 37° C. The resulting erythrocyte pellet was discarded and the neutrophil enriched supernatant fluid centrifuged at 500 g for 10 minutes at 4° C. Erythrocytes still present in this cell pellet were lysed by incubating the cells with 5-8 ml ice-cold distilled water for 30-45 seconds. Subsequently, the volume was made up to 50 ml by addition of ice-cold buffer and the cells resuspended. The suspension was then centrifuged at 300 g for 10 minutes at 4° C. The cells were finally resuspended at a cell density of 2×10^7 cells/ml in the assay buffer This buffer consisted of Hanks' balanced salt solution and 0.1% ovalbumin (pH 7.3).
The amount of bound ^3 H-LTB4 was then measured and compared with the amount bound in the absence of test compound. The assay was carried out in microcentrifuge tubes by adding first 10 μl test compound dissolved in DMSO, followed by adding 20 μl ^3 H-LTB4 diluted in assay buffer, and finally adding 500 μl of the cell suspension. At the end of the 10 minutes incubation, 300 μl of a mixture of dibutyl and dinonyl phthalate (7:2) were added and the tubes centrifuged for 2 minutes in a microcentrifuge. The radioactivity bound to the cell pellet was measured by scintillation spectroscopy. Appropriate corrections for nonspecific bonding of ^3 H-LTB4 were made.

Test [3] deals with LTB4 induced cell aggregation (neutrophils). The test can be described thus: LTB4 Induced Aggregation Assay (neutrophils). It counts as cell-based, guinea pig. The note with it: Cavia porcellus, Neutrophil; for inhibition at 1 µM: drug concentration 10^-6 M; for inhibition at 0.1 µM: drug concentration 10^-7 M; for inhibition at 10 µM: drug concentration 10^-5 M. The protocol: Neutrophils were elicited by intraperitoneally injecting 20 ml of Dulbecco's calcium and magnesium deficient phosphate buffered saline (PBS) containing 2% oyster glycogen into each of two male Hartley guinea pigs. Eighteen hours later, cells accumulating in the peritoneal cavity were harvested by washing the peritoneum with approximately 100 ml of PBS containing 10 units/ml of heparin. The cells were centrifuged at 200 g for 8 min. and the supernatant fluid discarded. Erythrocytes present in the pellet were lyzed by vigorous agitation of the cells in 9 ml of ice-cold distilled water for approximately 30 seconds. Physiological osmolarity was restored by adding 1.5 ml of 0.6 M KCl. Twelve milliliters of PBS were added and the resuspended cells centrifuged at 200 g for 8 min. at 4°. The pellet was resuspended in 5 ml PBS. The cell concentration was determined and additional buffer added to make the concentration […]; cells per ml.
The aggregation assay was carried out by measuring the amount of LTB4 induced cell aggregation with a Payton single channel aggregometer, model 300B. The apparatus was calibrated by placing a cuvette containing the cell suspension in it and adjusting the zero knob so that the recorder pen rested at 1 mV. A cuvette containing 20% less cells was then inserted into the aggregometer and the output knob adjusted so that the recorder pen rested at 9 mV. With these settings an 8 mV change causes the recorder pen to move 200 mm. When conducting an assay, 0.5 ml of cell suspension (5×10^6 cells) was added to each cuvette. Five microliters of a solution of test compound were then added. Most compounds were initially dissolved in DMSO at 1×10^-2 M and then diluted appropriately with PBS so that the test compound concentration was 1×10^-5 to 1×10^-7 M and the test DMSO concentration was 0.1% or less. A few of the more water insoluble compounds were first dissolved in DMSO at 1 to 6×10^-3 M and then diluted appropriately with PBS. The test concentration of DMSO was never higher than 1%. After a 2 minute equilibration period of cells and test compound, 5 μl of a solution containing CaCl2 (100 mM) and MgCl2 (50 mM) were added. One minute later, 5 μ l of PBS containing LTB4 (3×10^-7 M) were added. The change occurring in the amount of light transmitted during the subsequent minute was measured. […] During a typical experiment, several measurements of the amount of aggregation induced by LTB4 were made and an average value determined. The effect of a test compound on this aggregation was determined by the following formula: [formula]

The mark [4] stands for this setting: drug concentration 10^-5 M, 0.1-0.2 nM ^3 H-LTB4, 10 minutes at 4° C.
Setting [5] is: drug concentration 10^-6 M, 0.1-0.2 nM ^3 H-LTB4, 10 minutes at 4° C.
[6] abbreviates: 0.1-0.2 nM ^3 H-LTB4, 10 minutes at 4° C.

Each structure is given as a SMILES string. Read-outs that look alike come from different tables or passages of the source.

For orientation: Kb means the equilibrium dissociation constant of an antagonist, usually derived from a functional assay. A word on the inhibition: it is the drop in the measured response relative to a control, in per cent. As for `CCCCCCCCCCOc1ccc(C(=O)c2cccc(C(=O)O)c2)cc1Cc1nnn[nH]1` [Example 3, 3-[4-(Decyloxy)-3-(1-tetrazol-5-ylmethyl]benzoyl]benzoic acid], the Kb in test [1] was 501 nM. In test [2] (setting [4]), the inhibition at 10 µM is 76%. The inhibition at 1 µM came out at 26% in test [2] (setting [5]) and 84% in test [3]. Further, the inhibition at 0.1 µM in test [3] was determined as 2%.
Regarding `CCCCCCCCCCOc1ccc(C(=O)c2ccccc2C(=O)O)cc1CC(=O)O` [Example 20, 5-(2-Carboxybenzoyl)-2-(decyloxy)benzeneacetic acid], the Kb in test [1] was 1000 nM. Besides, the inhibition at 10 µM in test [2] (setting [4]) was 71%. For the same molecule, the “LTB4 Binding Inhibition” value in test [2] (setting [5]) worked out at 35 percent inhibition. In addition, in test [3], the inhibition at 1 µM is 78% and the inhibition at 0.1 µM came to 32%.
As for `CCCCCCCCCCOc1ccc(C(=O)c2cccc(C(=O)O)c2)c(CC(=O)O)c1` [Example 21, 2-(3-Carboxybenzoyl)-5-(decyloxy)benzeneacetic acid], the Kb in test [1] was 1410 nM. Further, the inhibition at 10 µM in test [2] (setting [4]) came to 74%. For the same molecule, the inhibition at 1 µM in test [2] (setting [5]) was 23%.
In the case of `CCCCCCCCCCOc1ccc(C(=O)c2cccc(C(=O)O)c2)cc1CCC(=O)O` [Example 22, 5-(3-Carboxybenzoyl)-2-(decyloxy)benzenepropanoic acid], the Kb in test [1] is 1950 nM. In addition, the inhibition at 10 µM in test [2] (setting [4]) amounted to 95%. The inhibition at 1 µM in test [2] (setting [5]) was 62%. For the same molecule, the inhibition at 0.1 µM in test [2] (setting [6]) turned out to be 17%; in test [3] it was 83%.
As for `CCCCCCCCCCOc1ccc(C(=O)c2cccc(-c3nnn[nH]3)c2)cc1CC(=O)O` [Example 24, 2-(Decyloxy)-5-[3-(1H-tetrazol-5-yl)benzoyl]benzeneacetic acid], the Kb in test [1] was 398 nM. Moreover, the inhibition at 10 µM in test [2] (setting [4]) was 93%. Also, the inhibition at 1 µM in test [2] (setting [5]) was found to be 28%.
On the same counts, the results for `CCCCCCCCCCOc1ccc(C(=O)c2cccc(C(=O)O)c2)cc1CCc1nnn[nH]1` [Example 28, 3-{4-(Decyloxy)-3-[2-(1H-tetrazol-5-yl)ethyl]benzoyl}benzoic acid] are 324 nM, 96% and 55%.
Take `CCCCCCCCCCOc1ccc(C(=O)c2cccc(-c3nnn[nH]3)c2)cc1CCC(=O)O` [Example 29, 2-(Decyloxy)-5-[3-(1H-tetrazol-5-yl)benzoyl]benzenepropanoic acid]: the Kb in test [1] was 955 nM. Further, the inhibition at 10 µM in test [2] (setting [4]) worked out at 98%. For the same molecule, the inhibition at 1 µM came out at 71% in test [2] (setting [5]) and 72% in test [3]. In addition, the values for the inhibition at 0.1 µM in test [2] (setting [6]) and in test [3] were 11% and 14%, respectively.
Turning to `CCCCCCCCCCOc1ccc(C(=O)c2ccccc2CC(=O)O)cc1CCC(=O)O` [Example 33, 5-[2-(Carboxymethyl)benzoyl]-2-(decyloxy)benzenepropanoic acid], the Kb in test [1] was 1150 nM. The inhibition at 1 µM in test [2] (setting [5]) stood at 79%; in test [3], 94%. Also, the inhibition at 0.1 µM in test [2] (setting [6]) turned out to be 17%; in test [3] it was 45%. Besides, the inhibition at 10 µM in test [2] was determined as 100%.
Turning to `CCCCCCCCCCOc1ccc(C(O)c2cccc(C(=O)O)c2)cc1CC(=O)O` (stereo not drawn) [Example 45, 5-[(3--Carboxyphenyl)hydroxymethyl]-2-(decyloxy)benzeneacetic acid], in test [1], the antagonist dissociation constant (Kb) was 2000 nM. The results for the inhibition at 10 µM in test [2] (setting [4]) and in test [3] were 78% and 77%, respectively. The inhibition at 1 µM in test [2] (setting [5]) turned out to be 19%; in test [3] it was 11%.
`CCCCCCOc1ccc(C(O)c2cccc(C(=O)O)c2)cc1CC(=O)O` (stereo not drawn) [Example 48, 5-[(3--Carboxyphenyl)hydroxymethyl]-2-(hexyloxy)benzeneacetic acid]: the Kb in test [1] is 7940 nM. The inhibition at 10 µM in test [2] (setting [4]) came to 10%. Also, the inhibition at 1 µM in test [2] (setting [5]) was -10%.
As to `CCCCCCCCCCOc1ccc(C(=NO)c2cccc(C(=O)O)c2)cc1CCC(=O)O` [Example 52, 5-[(3-Carboxyphenyl)(hydroxyimino)methyl]-2-(decyloxy)benzenepropanoic acid], the antagonist equilibrium constant (Kb) in test [1] is 661 nM. In addition, the inhibition at 1 µM stood at 61% in test [2] (setting [5]) and 89% in test [3]. Further, the inhibition at 0.1 µM in test [2] (setting [6]) worked out at 17%; in test [3] it was 38%. For the same molecule, the inhibition at 10 µM was 92% in test [2] and 94% in test [3].
In the case of `CCCCCCCCCCOc1ccc(Oc2cccc(C(=O)O)c2)cc1CCC(=O)O` [Example 56, 5-(3-Carboxyphenoxy)-2-(decyloxy)benzenepropanoic acid], the Kb in test [1] is 479 nM. In test [2] (setting [4]), the inhibition at 10 µM was determined as 88%. Also, the inhibition at 1 µM in test [2] (setting [5]) was 41%.
